In ChEMBL document CHEMBL1133837, “Discovery of selective hydroxamic acid inhibitors of tumor necrosis factor-alpha converting enzyme” (Bioorg Med Chem Lett, 2001):

Key:
[1] = molecular target: T1, Disintegrin and metalloproteinase domain-containing protein 17 (Homo sapiens, UniProt P78536); format: functional, cell-based, THP-1
[2] = molecular target: T1, Disintegrin and metalloproteinase domain-containing protein 17
Interstitial collagenase = molecular target: T2, Interstitial collagenase (Homo sapiens, UniProt P03956)
T2 sequence (P03956 whole entry): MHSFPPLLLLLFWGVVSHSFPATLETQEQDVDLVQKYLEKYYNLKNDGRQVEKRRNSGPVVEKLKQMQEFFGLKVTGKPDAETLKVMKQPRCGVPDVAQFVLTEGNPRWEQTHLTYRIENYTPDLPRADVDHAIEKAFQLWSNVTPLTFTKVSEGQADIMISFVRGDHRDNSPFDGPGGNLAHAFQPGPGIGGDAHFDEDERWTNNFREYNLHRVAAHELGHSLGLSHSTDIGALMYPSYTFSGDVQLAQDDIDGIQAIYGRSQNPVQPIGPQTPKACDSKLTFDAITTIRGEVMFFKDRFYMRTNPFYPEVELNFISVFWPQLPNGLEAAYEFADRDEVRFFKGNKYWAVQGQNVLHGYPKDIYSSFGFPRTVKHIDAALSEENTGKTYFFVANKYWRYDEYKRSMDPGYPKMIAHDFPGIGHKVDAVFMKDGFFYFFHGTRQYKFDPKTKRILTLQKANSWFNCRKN

[3] = molecular target: 72 kDa type IV collagenase (Homo sapiens, UniProt P08253)
72 kDa type IV collagenase, sequence (P08253 whole entry): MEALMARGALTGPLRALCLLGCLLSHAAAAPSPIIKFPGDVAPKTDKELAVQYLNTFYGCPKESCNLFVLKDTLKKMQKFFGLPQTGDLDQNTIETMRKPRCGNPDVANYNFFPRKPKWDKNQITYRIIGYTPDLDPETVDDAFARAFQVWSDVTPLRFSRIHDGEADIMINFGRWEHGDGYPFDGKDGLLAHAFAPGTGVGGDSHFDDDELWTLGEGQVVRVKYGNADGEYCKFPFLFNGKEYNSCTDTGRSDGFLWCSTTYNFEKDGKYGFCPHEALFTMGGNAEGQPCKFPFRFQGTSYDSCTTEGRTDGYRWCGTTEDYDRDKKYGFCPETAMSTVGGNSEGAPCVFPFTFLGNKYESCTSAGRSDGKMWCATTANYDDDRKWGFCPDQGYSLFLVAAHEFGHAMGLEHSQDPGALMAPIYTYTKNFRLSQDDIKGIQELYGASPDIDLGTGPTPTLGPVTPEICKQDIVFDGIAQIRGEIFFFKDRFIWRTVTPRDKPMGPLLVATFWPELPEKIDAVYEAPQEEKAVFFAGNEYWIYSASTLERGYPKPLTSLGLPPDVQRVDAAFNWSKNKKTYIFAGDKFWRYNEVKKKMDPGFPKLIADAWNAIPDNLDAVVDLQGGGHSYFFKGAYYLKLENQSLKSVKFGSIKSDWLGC

T1 sequence (P78536 whole entry, the tested form may be a part): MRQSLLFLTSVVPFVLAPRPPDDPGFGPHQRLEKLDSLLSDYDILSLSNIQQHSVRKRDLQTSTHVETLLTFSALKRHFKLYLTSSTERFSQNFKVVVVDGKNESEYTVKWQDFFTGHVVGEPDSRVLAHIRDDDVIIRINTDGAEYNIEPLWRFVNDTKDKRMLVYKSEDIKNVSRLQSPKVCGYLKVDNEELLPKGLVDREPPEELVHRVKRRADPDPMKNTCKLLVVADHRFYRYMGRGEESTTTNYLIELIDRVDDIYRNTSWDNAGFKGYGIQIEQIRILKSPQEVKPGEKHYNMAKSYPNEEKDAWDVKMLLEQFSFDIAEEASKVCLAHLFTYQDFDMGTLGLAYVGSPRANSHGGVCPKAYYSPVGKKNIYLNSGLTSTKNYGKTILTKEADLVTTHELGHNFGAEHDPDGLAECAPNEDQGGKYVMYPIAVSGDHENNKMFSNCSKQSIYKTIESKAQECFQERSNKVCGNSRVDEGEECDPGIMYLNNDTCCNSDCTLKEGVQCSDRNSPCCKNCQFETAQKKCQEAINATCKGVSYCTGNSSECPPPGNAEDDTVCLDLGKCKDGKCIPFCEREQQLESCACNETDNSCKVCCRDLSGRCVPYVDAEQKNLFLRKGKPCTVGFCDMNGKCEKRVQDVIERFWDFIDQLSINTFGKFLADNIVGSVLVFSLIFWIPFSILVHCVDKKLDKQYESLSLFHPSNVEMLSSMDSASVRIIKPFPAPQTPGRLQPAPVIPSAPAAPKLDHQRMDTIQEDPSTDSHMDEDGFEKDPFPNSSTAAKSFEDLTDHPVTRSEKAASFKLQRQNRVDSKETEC

CNC(=O)[C@@H]1Cc2ccc(cc2)OCCCC[C@H](C(=O)NO)[C@@H](CCCc2cc(C(F)(F)F)cc(C(F)(F)F)c2)C(=O)N1
IC50 [1]: 300 nM | IC50 [2]: 33 nM | IC50 (Interstitial collagenase): > 10000 nM

CNC(=O)[C@@H]1Cc2ccc(cc2)OCCCC[C@H](C(=O)NO)[C@@H](CCCc2cc(C)cc(C(C)C)c2)C(=O)N1
IC50 (Interstitial collagenase): > 1000 nM

COc1cc(CCC[C@H]2C(=O)N[C@H](C(=O)c3ccccc3)Cc3ccc(cc3)OCCCC[C@@H]2C(=O)NO)cc(OC)c1
IC50 (Interstitial collagenase): > 10000 nM

COCCOc1cc(CCC[C@H]2C(=O)N[C@H](C(=O)c3ccccc3)Cc3ccc(cc3)OCCCC[C@@H]2C(=O)NO)cc(OC)c1
IC50 [1]: 15000 nM | IC50 [2]: 74 nM | IC50 (Interstitial collagenase): > 10000 nM

COc1cc(Oc2ccc(S(=O)(=O)N3CCSC(C)(C)[C@@H]3C(=O)NO)cc2)cc(OC)c1OC
IC50 (Interstitial collagenase): 26 nM | IC50 [3]: 21 nM

COc1cc(Oc2ccc(SCC(C)C(=O)NO)cc2)cc(OC)c1OC (stereo not drawn)
IC50 [2]: 180 nM | IC50 (Interstitial collagenase): > 10000 nM | IC50 [3]: 3400 nM

CC1(C)SCCN(S(=O)(=O)c2ccc(Oc3cccnc3)cc2)[C@H]1C(=O)NO
IC50 (Interstitial collagenase): 5.7 nM

CNC(=O)[C@@H]1Cc2ccc(cc2)OCCCC[C@H](C(=O)NO)[C@@H](CCCc2cc(OC)ccc2OC)C(=O)N1
IC50 [1]: 4100 nM | IC50 [2]: 6.8 nM

O=C(c1ccccc1)[C@@H]1Cc2ccc(cc2)OCCCC[C@H](C(=O)NO)[C@@H](CCCc2cc(Br)cc(Br)c2)C(=O)N1
IC50 [1]: > 5000 nM | IC50 [2]: 87 nM

COc1cc(Oc2ccc(S(=O)(=O)CC(C)C(=O)NO)cc2)cc(OC)c1OC (stereo not drawn)
IC50 (Interstitial collagenase): > 10000 nM | IC50 [3]: 430 nM

COc1cc(CCC[C@H]2C(=O)N[C@H](C(=O)c3ccccc3)Cc3ccc(cc3)OCCCC[C@@H]2C(=O)NO)cc(OC)c1OC
IC50 (Interstitial collagenase): > 10000 nM

CNC(=O)[C@@H]1Cc2ccc(cc2)OCCCC[C@H](C(=O)NO)[C@@H](CCCc2ccc(Cl)cc2)C(=O)N1
IC50 [1]: 440 nM | IC50 [2]: 3.4 nM
